Data on 18 compounds can be found in ChEMBL document CHEMBL1132705, “Synthesis and biological activities of spiroheterocyclic growth hormone secretagogues” (Bioorg Med Chem Lett, 1999).

Each structure is given as a SMILES string.

The species named for one assay is Rattus norvegicus. In words: Stimulation of growth hormone (GH) release determined in vitro by rat pituitary cell assay. Conditions: Pituitary gland cell. The class given is functional.
Take `CC(C)(N)C(=O)N[C@H](COCc1ccccc1)C(=O)N1CCC2(CC1)CSc1ccccc12`: the EC50 (commonly the concentration that produces a half-maximal response) came to 10 nM. That is a double-digit nanomolar value. `CC(C)(N)C(=O)N[C@H](CCCc1ccccc1)C(=O)N1CCC2(CC1)C[S+]([O-])c1ccccc12.Cl` (stereo partly specified) gave an EC50 of 2 nM.

`CC(C)(N)C(=O)N[C@H](CCCc1ccccc1)C(=O)N1CCC2(CC1)CSc1ccccc12` registered an EC50 of 4.8 nM. `CC(C)(N)C(=O)N[C@H](CCc1ccccc1)C(=O)N1CCC2(CC1)CS(=O)(=O)c1ccccc12` had an EC50 of 6 nM. With `CC(C)(N)C(=O)N[C@H](Cc1c[nH]c2ccccc12)C(=O)N1CCC2(CC1)CSc1ccccc12`, the midpoint of the response, the EC50, lay at 5.6 nM. The EC50 values of the last two compounds are within 1.5-fold of each other. In turn, `CC(C)(N)C(=O)N[C@H](CCC1CCCCC1)C(=O)N1CCC2(CC1)C[S+]([O-])c1ccccc12` (stereo partly specified) returned an EC50 of 3.4 nM. Against the preceding compound, the EC50 is about 1.6-fold lower. The same measure, in the same setting: in the case of `CC(C)(N)C(=O)N[C@H](COCc1ccccc1)C(=O)N1CCC2(CC1)CS(=O)(=O)c1ccccc12` it was 5 nM; in that of `CC(C)(N)C(=O)N[C@H](CCc1ccccc1)C(=O)N1CCC2(CC1)CSc1ccccc12`, 57 nM. With `CC(C)(N)C(=O)N[C@H](CCC1CCCCC1)C(=O)N1CCC2(CC1)CSc1ccccc12`, a half-maximal response (EC50) required 8.1 nM. The compound `CC(C)(N)C(=O)N[C@H](CCCc1ccccc1)C(=O)N1CCC2(CC1)COc1ccccc12` yielded an EC50 of 2.7 nM. This EC50 lies about 3-fold lower than the previous one. Turning to `CC(C)(N)C(=O)N[C@H](CCCc1ccccc1)C(=O)N1CCC2(CC1)CS(=O)(=O)c1ccccc12.Cl`, a half-maximal effect (EC50) was put at 1.1 nM. The compound `CC(C)(N)C(=O)N[C@H](COCc1ccccc1)C(=O)N1CCC2(CC1)C[S+]([O-])c1ccccc12` (stereo partly specified) registered an EC50 of 8.5 nM.

As to `CC(C)(N)C(=O)N[C@H](COCc1ccccc1)C(=O)N1CCC2(CC1)COc1ccccc12`, the EC50 worked out at 8.5 nM. In turn, `CC(C)(N)C(=O)N[C@H](CCC1CCCCC1)C(=O)N1CCC2(CC1)CS(=O)(=O)c1ccccc12.Cl` came in with an EC50 of 1.4 nM. Turning to `CC(C)(N)C(=O)N[C@H](CCC1CCCCC1)C(=O)N1CCC2(CCc3ccccc32)CC1`, the EC50 turned out to be 21 nM. This EC50 lies about 15-fold higher than the previous one.

On to `CC(C)(N)C(=O)N[C@H](Cc1c[nH]c2ccccc12)C(=O)N1CCC2(CC1)CS(=O)(=O)c1ccccc12`, for which the EC50 is 2.1 nM. In the case of `CC(C)(N)C(=O)N[C@H](CCc1ccccc1)C(=O)N1CCC2(CCc3ccccc32)CC1`, the EC50 is 22 nM.

The species entered for the next assay is Canis familiaris. Description: Minimum effective dose required for oral activity in beagles that caused at least five fold elevation of growth hormone (GH) over basal levels. In kind it is functional. The settings on record: Canis lupus familiaris, read-out: MED.
Turning to `CC(C)(N)C(=O)N[C@H](CCCc1ccccc1)C(=O)N1CCC2(CC1)C[S+]([O-])c1ccccc12.Cl` (stereo partly specified), the minimal effective dose worked out at 0.25 mg/kg.

Consider `CC(C)(N)C(=O)N[C@H](CCCc1ccccc1)C(=O)N1CCC2(CC1)CS(=O)(=O)c1ccccc12.Cl`, for which the minimal effective dose worked out at 0.125 mg/kg. In the case of `CC(C)(N)C(=O)N[C@H](CCCc1ccccc1)C(=O)N1CCC2(CCc3ccccc32)CC1.Cl`, the minimal effective dose is 5 mg/kg. On to `CC(C)(N)C(=O)N[C@H](CCC1CCCCC1)C(=O)N1CCC2(CC1)CS(=O)(=O)c1ccccc12.Cl`, for which the minimal effective dose turned out to be 0.25 mg/kg.
